Results reported in patent US8961837B2, “Photosensitive resin composition for color filter and color filter using same” (Cheil Industries Inc., priority 2010, dated 2015).

Columns and labels:
[1] = Thermogravimetric analysis (TGA) of the dye; type: physicochemical; settings: temperature at which 10% of weight is decomposed (TGA)
Experimental: (§1) The diaminopyridine azo-based dyes (A-1) according to Examples 1 to 6 are measured regarding various properties such as solubility, maximum absorption wavelength, thermal decomposition temperature, and the like.
(§2) FIG. 1 is a graph showing the spectrum transmittance graph of the diaminopyridine azo-based dye (A-1), and FIG. 2 is a graph showing thermogravimetric analysis (TGA) results.

[2] = Spectrum transmittance / maximum absorption wavelength of the dye; type: physicochemical
Experimental: as §1, §2

SMILES: CCCCC(CC)CNCCS(=O)(=O)c1ccc(/N=N/c2c(NCC(CC)CCCC)nc(NCC(CC)CCCC)c(C#N)c2C)cc1 (centres unmarked) [A-1]
- thermal decomposition temperature [1]: 318 °C
- maximum absorption wavelength [2]: 470 nm
